One test deals with Torulopsis glabrata. As to the kind of experiment: Antimycotic in-vitro activity, serial dilution test (MIC). The format is cell-based. The note with it: Nakaseomyces glabratus, inoculum 5 x 10³ to 10⁴ Keime/ml, Fleischextrakt-Traubenzucker-Bouillon, 28 °C to 37 °C, 24 to 96 h, read-out: MHK-Werte Torulopsis glabrata. The procedure: (§1) Die in-vitro-Prüfungen wurden im Reihenverdünnungstest mit Keiminokula von durchschnittlich 5 x 10³ bis 10⁴ Keimen/ml Substrat durchgeführt. Als Nährmedium dienten • a) für Dermatophyten und Schimmelpilze: Sabouraud's milieu d'epreuve • b) für Hefen: Fleischextrakt-Traubenzucker-Bouillon.
(§2) Die Bebrütungstemperatur betrug 28 °C bis 37 °C, die Bebrütungsdauer lag bei 24 bis 96 Stunden bei Hefen und 96 Stunden bei Dermatophyten und Schimmelpilzen.

In the next test the test system is Candida albicans. The description is as above. Type of test: cell-based. As to conditions: inoculum 5 x 10³ to 10⁴ Keime/ml, Fleischextrakt-Traubenzucker-Bouillon, 28 °C to 37 °C, 24 to 96 h, read-out: MHK-Werte Candida albicans. The procedure:
as §1, §2

In another test the test system is Aspergillus fumigatus. Described as above. Type of test: cell-based. As to conditions: inoculum 5 x 10³ to 10⁴ Keime/ml, Sabouraud's milieu d'epreuve, 28 °C to 37 °C, 96 h, read-out: MHK-Werte Aspergillus fumigatus. The procedure:
as §1, §2

The test system of the next test is Trichophyton mentagr. Described as above. Type of test: cell-based, Trichophyton mentagrophytes. As to conditions: inoculum 5 x 10³ to 10⁴ Keime/ml, Sabouraud's milieu d'epreuve, 28 °C to 37 °C, 96 h, read-out: MHK-Werte Trichophyton mentagr. As for the experimental part:
as §1, §2

In test [1] the test system is Dermatophyten, Schimmelpilze, Hefen. As to the kind of experiment: Antimycotic in-vitro activity, serial dilution test (overall comparison). The format is cell-based. As to conditions: compared in words with known compounds (A) and (B). As for the experimental part: as §1, §2
The next test relates to Candida. Briefly: Antimycotic in-vivo activity (oral) in mouse candidosis. Also noted: species or system Mäuse vom Typ SPF-CF₁. As for the experimental part: Mäuse vom Typ SPF-CF₁ werden intravenös mit 1 - 2 x 10⁶ logarithmisch wachsenden Candida-Zellen, die in physiologischer Kochsalzlösung suspendiert werden, infiziert. Eine Stunde vor und sieben Stunden nach der Infektion werden die Tiere mit jeweils 25 - 100 mg/kg Körpergewicht der Präparate oral behandelt.
Unbehandelte Tiere sterben 3 bis 6 Tage post infektionem. Die Überlebensrate am 6.Tag post infektionem beträgt bei unbehandelten Kontrolltieren etwa 5 %.

In another test the test system is Microsporum canis. Briefly: Antimycotic in-vitro activity, serial dilution test (MIC). The format is cell-based. As to conditions: inoculum 5 x 10³ to 10⁴ Keime/ml, Sabouraud's milieu d'epreuve, 28 °C to 37 °C, 96 h, read-out: MHK-Werte Microsporum canis. The procedure: as §1, §2
[2] abbreviates: mouse candidosis, oral, compared in words with known compounds (A) and (B).

The structures appear in SMILES notation. Values after ≈ are worked out from the molar mass of the structure shown.

The results in this text go back to patent publication EP0313984A1, “Substituted azolyl methyl carbinols and pharmaceutical compositions containing them” (BAYER AG, priority 1987, dated 1989).

For the compound `OC(Cn1cncn1)(Cn1cncn1)c1ccccc1` [(A), 2-Phenyl-1,3-bis-(1,2,4-triazol-1-yl)-propan-2-ol, reference compound], the MIC is more than 64 µg/mL in the test on Torulopsis glabrata, 64 µg/mL (≈ 237 µM) in the test on Candida albicans, more than 64 µg/mL in the test on Aspergillus fumigatus and 64 µg/mL (≈ 237 µM) with Trichophyton mentagr..

For the compound `Cc1nc(C(O)(Cn2cncn2)c2ccc(F)cc2)cs1` (stereo not drawn) [Verbindung 1, 1-(4-Fluorphenyl)-1-(2-methylthiazol-4-yl)-2-(1,2,4-triazol-1-yl)-ethanol], the MIC with Torulopsis glabrata was more than 64 µg/mL; in the test on Candida albicans, 15 µg/mL (≈ 49.3 µM); in the test on Aspergillus fumigatus, 32 µg/mL (≈ 105 µM); in the test on Trichophyton mentagr., 4 µg/mL (≈ 13.1 µM). Also, the “antimykotische Wirksamkeit” value in test [1] is given as “bessere antimykotische Wirksamkeit”.

Take `OC(Cn1ccnc1)(c1ccc(Cl)cc1)c1csc(COc2ccc(Cl)cc2Cl)n1` (stereo not drawn) [Verbindung 25]: the “antimykotische Wirksamkeit” value in test [1] was “bessere antimykotische Wirksamkeit”.

As for `OC(Cn1ccnc1)(c1ccc(F)cc1)c1csc(-c2ccccc2)n1` (stereo not drawn) [Verbindung 27], the “antimykotische Wirksamkeit” value in test [1] is recorded as “bessere antimykotische Wirksamkeit”.

On to `Cc1ccc(C(O)(Cn2cncn2)c2csc(C)n2)cc1` (stereo not drawn) [Verbindung 57], for which, in the test with Candida (setting [2]), the Wirkung result was “bessere Wirkung”.

`OC(Cn1ccnc1)(c1ccc(Cl)cc1)c1csc(-c2ccccc2)n1` (stereo not drawn) [Verbindung 62]: the “antimykotische Wirksamkeit” value in test [1] is given as “bessere antimykotische Wirksamkeit”.

As for `OC(Cn1ccnc1)(c1ccc(Cl)cc1)c1csc(N2CCCCC2)n1` (stereo not drawn) [Verbindung 18], the MIC was 16 µg/mL (≈ 41.1 µM) with Torulopsis glabrata; 64 µg/mL (≈ 165 µM) in the test with Microsporum canis; 8 µg/mL (≈ 20.6 µM) in the test with Candida albicans; 32 µg/mL (≈ 82.3 µM) with Aspergillus fumigatus; less than 1 µg/mL in the test with Trichophyton mentagr.. Moreover, the “antimykotische Wirksamkeit” value in test [1] is on record as “bessere antimykotische Wirksamkeit”.

As for `OC(Cn1cncn1)(c1ccc(Cl)cc1)c1csc(-c2ccc(F)c(Cl)c2)n1` (stereo not drawn) [Verbindung 47], in test [1], the “antimykotische Wirksamkeit” value is “bessere antimykotische Wirksamkeit”.

With `OC(Cn1cncn1)(c1ccc(Cl)cc1)c1csc(Nc2ccccc2)n1` (stereo not drawn) [Verbindung 45], the “antimykotische Wirksamkeit” value in test [1] is listed as “bessere antimykotische Wirksamkeit”.

Turning to `Cc1ccccc1-c1nc(C(O)(Cn2cncn2)c2ccc(Cl)cc2)cs1` (stereo not drawn) [Verbindung 52], the “antimykotische Wirksamkeit” value in test [1] is on record as “bessere antimykotische Wirksamkeit”.

Take `Cc1cccc(-c2nc(C(O)(Cn3cncn3)c3ccc(Cl)cc3)cs2)c1` (stereo not drawn) [Verbindung 36]: in test [1], the “antimykotische Wirksamkeit” value is “bessere antimykotische Wirksamkeit”.

For `CCN(CC)c1nc(C(O)(Cn2cncn2)c2ccc(Cl)cc2)cs1` (stereo not drawn) [Verbindung 49], the “antimykotische Wirksamkeit” value in test [1] is listed as “bessere antimykotische Wirksamkeit”.

Turning to `OC(Cn1cncn1)(c1ccc(Cl)cc1)c1csc(-c2ccccc2)n1` (stereo not drawn) [Verbindung 59], the “antimykotische Wirksamkeit” value in test [1] is reported as “bessere antimykotische Wirksamkeit”.

Take `Cc1ccc(-c2nc(C(O)(Cn3ccnc3)c3ccc(Cl)cc3)cs2)cc1` (stereo not drawn) [Verbindung 14]: the MIC in the test on Torulopsis glabrata was 2 µg/mL (≈ 5.05 µM); in the test with Microsporum canis, 8 µg/mL (≈ 20.2 µM); in the test with Candida albicans, 2 µg/mL (≈ 5.05 µM); with Aspergillus fumigatus it was 4 µg/mL (≈ 10.1 µM); with Trichophyton mentagr., less than 1 µg/mL. For the same compound, the “antimykotische Wirksamkeit” value in test [1] is reported as “bessere antimykotische Wirksamkeit”.

Turning to `OC(Cn1ccnc1)(c1ccc(F)cc1)c1csc(-c2ccc(Cl)cc2)n1` (stereo not drawn) [Verbindung 39], the “antimykotische Wirksamkeit” value in test [1] is “bessere antimykotische Wirksamkeit”.

In the case of `Cc1ccc(-c2nc(C(O)(Cn3cncn3)c3ccc(Cl)cc3)cs2)cc1` (stereo not drawn) [Verbindung 15], the MIC in the test on Torulopsis glabrata is 4 µg/mL (≈ 10.1 µM); with Microsporum canis, 8 µg/mL (≈ 20.2 µM); with Candida albicans, 4 µg/mL (≈ 10.1 µM); in the test on Aspergillus fumigatus, 4 µg/mL (≈ 10.1 µM); in the test with Trichophyton mentagr., less than 1 µg/mL. Moreover, in test [1], the “antimykotische Wirksamkeit” value is listed as “bessere antimykotische Wirksamkeit”.

Regarding `OC(Cn1cncn1)(c1ccc(Cl)cc1)c1csc(-c2ccc(-n3cncn3)c(Cl)c2)n1` (stereo not drawn) [Verbindung 23], the Wirkung result in the test on Candida (setting [2]) is recorded as “bessere Wirkung”. For the same compound, in test [1], the “antimykotische Wirksamkeit” value is “bessere antimykotische Wirksamkeit”.

With `CN(c1ccccc1)c1nc(C(O)(Cn2cncn2)c2ccc(Cl)cc2)cs1` (stereo not drawn) [Verbindung 43], the “antimykotische Wirksamkeit” value in test [1] is listed as “bessere antimykotische Wirksamkeit”.

In the case of `OC(Cn1cncn1)(c1ccc(Cl)cc1)c1csc(-c2ccc(-n3cncn3)cc2)n1` (stereo not drawn) [Verbindung 42], the Wirkung entry in the test with Candida (setting [2]) is given as “bessere Wirkung”. In addition, in test [1], the “antimykotische Wirksamkeit” value is on record as “bessere antimykotische Wirksamkeit”.

With `OC(Cn1ccnc1)(c1ccc(Cl)cc1)c1csc(-c2ccc(-n3ccnc3)c(Cl)c2)n1` (stereo not drawn) [Verbindung 22], the Wirkung entry in the test on Candida (setting [2]) is on record as “bessere Wirkung”. The “antimykotische Wirksamkeit” value in test [1] is listed as “bessere antimykotische Wirksamkeit”.

For `OC(Cn1ccnc1)(c1ccc(Cl)cc1)c1csc(-c2ccc(Cl)cc2)n1` (stereo not drawn) [Verbindung 20], the “antimykotische Wirksamkeit” value in test [1] is on record as “bessere antimykotische Wirksamkeit”.

On to `CC(C)(n1cncn1)C(O)(Cn1ccnc1)c1ccc(F)cc1` (stereo not drawn) [(B), 2-(4-Fluorphenyl)-3-methyl-1-imidazol-1-yl-3-(1,2,4-triazol-1-yl)-butan-2-ol, reference compound], for which the MIC in the test with Torulopsis glabrata, in the test on Candida albicans, in the test with Aspergillus fumigatus and in the test on Trichophyton mentagr. was more than 64 µg/mL each time. Further, in the test on Candida (mice infected i.v. with 1 - 2 x 10⁶ Candida cells, 25 - 100 mg/kg oral 1 h before and 7 h after infection, survival at day 6 p.i., class symbols, key not readable), the Wirkung entry was “k.w”.

On to `OC(Cn1cncn1)(c1ccc(F)cc1)c1csc(-c2ccc(F)cc2)n1` (stereo not drawn) [Verbindung 44], for which the “antimykotische Wirksamkeit” value in test [1] is “bessere antimykotische Wirksamkeit”.

For `OC(Cn1cncn1)(c1ccc(Cl)cc1)c1csc(-c2ccc(F)cc2)n1` (stereo not drawn) [Verbindung 41], the Wirkung result in the test on Candida (setting [2]) is reported as “bessere Wirkung”. In addition, in test [1], the “antimykotische Wirksamkeit” value was “bessere antimykotische Wirksamkeit”.

Regarding `OC(Cn1cncn1)(c1ccc(Cl)cc1)c1csc(COc2ccc(Cl)cc2Cl)n1` (stereo not drawn) [Verbindung 26], the “antimykotische Wirksamkeit” value in test [1] is reported as “bessere antimykotische Wirksamkeit”.

Regarding `OC(Cn1cncn1)(c1ccc(Cl)cc1)c1csc(-c2ccc(Cl)cc2)n1` (stereo not drawn) [Verbindung 21], the Wirkung entry in the test on Candida (setting [2]) was “bessere Wirkung”. Further, the “antimykotische Wirksamkeit” value in test [1] is given as “bessere antimykotische Wirksamkeit”.

Take `Cc1ccc(C(O)(Cn2ccnc2)c2csc(-c3ccc(Cl)cc3)n2)cc1` (stereo not drawn) [Verbindung 3]: the MIC in the test on Torulopsis glabrata was 4 µg/mL (≈ 10.1 µM); with Microsporum canis, 16 µg/mL (≈ 40.4 µM); in the test on Candida albicans, less than 1 µg/mL; with Aspergillus fumigatus it was 16 µg/mL (≈ 40.4 µM); with Trichophyton mentagr., less than 1 µg/mL. In addition, the “antimykotische Wirksamkeit” value in test [1] is “bessere antimykotische Wirksamkeit”.

With `OC(Cn1cncn1)(c1ccc(F)cc1)c1csc(-c2ccc(Cl)cc2)n1` (stereo not drawn) [Verbindung 40], the Wirkung entry in the test with Candida (setting [2]) was “bessere Wirkung”. Besides, the “antimykotische Wirksamkeit” value in test [1] is on record as “bessere antimykotische Wirksamkeit”.

On to `OC(Cn1cncn1)(c1ccc(F)cc1)c1csc(-c2ccccc2)n1` (stereo not drawn) [Verbindung 28], for which, in test [1], the “antimykotische Wirksamkeit” value is given as “bessere antimykotische Wirksamkeit”.
